One compound from patent publication US20200024246A1, “POGOSTONE DERIVATIVES AND METHODS OF USING THE SAME” (Hamyard Associates LLC, priority 2018, published 2020) can be followed below.

Data set [1] concerns Pyrethroid-resistant strain of Aedes aegypti (Puerto Rican strain). Briefly: Toxicity to insecticide-resistant mosquitoes (FIG. 1). As to conditions: dose response curves FIG. 1.
The test system of data set [2] is two-spotted spider mites, soybean aphids, maize weevils, German cockroaches, and European corn borers. Briefly: Screen of Formula 13 against other arthropod pest species. In kind it is in vivo. The note with it: words.
In data set [3] the test system is adult female Aedes aegypti. Briefly: Topical combination of Formula 13 with synthetic insecticides (FIGS. 6-9). In kind it is in vivo. As for the experimental part:
A low-dose concentration of Formula 13 (500 μg/mL) was applied in combination with chlorfenapyr (75 μg/mL), dibrom (10 μg/mL), thiamethoxam (100 μg/mL), and permethrin (2.5 μg/mL) to the pronotum of adult female Aedes aegypti in 0.2 μL of acetone. These concentrations were chosen as they produced little-to-no mortality at 24 hours after application. Knockdown (immobilization) was recorded at 1 hour after application and mortality was recorded at 24, 48, and 72 hours after initial application. These applications were run in parallel to a topical application of a combined mixture of 500 μg/mL Formula 13 and 75 μg/mL of chlorfenpayr to the pronotum of adult female mosquitoes. For this experiment, total of 25 mosquitoes were treated within each replicate, with a minimum of 3 replicates utilized for each treatment. Synergism was defined as the higher percentage mortality in the insecticidal combination of both Formula 13 and chlorfenapyr compared to each individual component applied by itself.

Data set [4] relates to house flies. Briefly: Spray-cup testing, house flies (FIG. 3a). In kind it is in vivo, house fly. As to conditions: Formula 13 2.5% w/v in water vs thymol 2.5% or 10% w/v. As for the experimental part: (§1) 10 adults of various arthropod species used for this characterization were placed into 8 oz. ice cream cups with tulle placed over the top to prevent the escape of arthropods from the container. Test formulations were added to spray bottles ([…]™) and applied at the same distance and spray number to eliminate variation between manufacturer spray bottles. For all experiments, spray bottles were set to mist in order to prevent excess formulation from accumulating in the cups. […] Mortality was recorded at 1 min, 5 min, 10 min, 15 min, 30 min, 4 hours, and 8 hours for each replicate. A minimum of 3 replicates of 10 arthropods/cup/replicate were performed for each formulation. Data was modeled using a logarithmic regression to show the speed-to-kill of each formulation and highlight differences among treatment groups. Different spray amounts were used for each arthropod, depending on susceptibility, e.g.:
House flies=8 sprays, 3 in […]

The subject of a further data set is two-spotted spider mites. Briefly: Leaf spray/dip test, spider mites (FIG. 4b). The note with it: spider mites on dipped soybean leaves, 48 hours. The format is in vivo, two-spotted spider mite. The procedure: (§2) Soybean leaves were removed from a previously uninfested plant and dipped in solution containing water, various concentrations of compounds to be screened, and 0.5% industrial emulsifier. Leaves were allowed to air dry for 30 minutes before the beginning of the assay to assure excess formulation was not present on the treated leaves. Ten two-spotted spider mites or ten soybean aphid adults were gently placed on the top surface of the treated leaves. A minimum of three replicates were performed for each formulation tested in this experiment. Mortality of aphids or spider mites was recorded at 48 hours after their introduction to treated leaves. All treatments were compared to a water+emulsifier control and a thymol+emulsifier control. Data was presented as the average mortality across all replicates along with the standard error of the mean.

The subject of a further data set is adult house flies. The experiment in a line: Topical application of pogostone derivatives with PBO or plant essential oil on house flies. The format is in vivo, house fly. The note with it: house flies. As for the experimental part:
Combinations of select pogostone derivatives with select concentrations of PBO or plant essential oils was performed. […] Synergists were applied as a subsequent application directly after the application of pogostone derivatives. Concentrations of synergists (plant oils or PBO) were chosen that produced no mortality at 24 hours when applied alone.
To assess the ability of PBO to increase the toxicity of a wide variety of pogostone derivatives, PBO and the pogostone derivatives were applied in combination to the pronotum of house flies.
Finally, the potential of plant essential oils to synergize the effect of Formula 30 was assessed.

In another data set the test system is German roaches. The experiment in a line: Spray-cup testing, German roaches (FIG. 3b). As to conditions: Formula 13 2.5% w/v in water vs thymol 2.5% or 10% w/v. In kind it is in vivo, German roach. The procedure:
as §1
German roaches=10 sprays, 3 in […]

For data set [5], the system named is house flies. The experiment in a line: Topical application on house flies. As to conditions: House Fly Toxicity; topical.
In another data set the test system is adult female mosquitoes. Briefly: whole plant or invertebrate. As to conditions: topical. The procedure:
The first group of DHAA-based derivatives that were tested included Formula A2, Formula B3, Formula C3, and Formula D3. A solution of 0.5% or 1.5% of each of these compounds was applied to the mosquitoes, as described above. […] Acetone was used as a control.

For the next data set, the system named is adult, female mosquitoes. The experiment in a line: Topical application on adult female mosquitoes (24-h mortality, 1-h knockdown). In kind it is in vivo, mosquito.
The next data set deals with soybean aphids. Briefly: Leaf spray/dip test, soybean aphids (FIG. 4a). The format is in vivo, soybean aphid. As to conditions: soybean aphids on dipped soybean leaves, 48 hours. The procedure:
as §2

For the next data set, the system named is maize weevils. The experiment in a line: Spray-cup testing, maize weevils (FIG. 3c). In kind it is in vivo, maize weevil. As to conditions: Formula 13 2.5% w/v in water vs thymol 2.5% or 10% w/v. The procedure: as §1
Maize weevils=8 sprays, 3 in […]

Data set [6] has as its system Giant foxtail (Setaria faberi). Briefly: Soil drench herbicidal test, foxtail. The format is in vivo. As to conditions: for % mortality: Foxtail, Rep 1 and 2. The procedure:
Dandelion (Taraxacum officinale) seeds were obtained from the Department of Agronomy at Iowa State University. Individual seeds were sown for each pot (6″ wide×4.5″ deep) with approximately 800 mL of soil for each plan. Only plants that germinated were used for the study. Plants were treated 1-2 weeks post emergence. Plants were watered every 2-3 days as needed. Giant foxtail (Setaria faberi) seeds were obtained from the Department of Agronomy at Iowa State University. Three seeds were sown for each pot (6″ wide×4.5″ deep) with approximately 800 mL of soil for each plan. Only plants that germinated were used for the study. Plants were treated 1-2 weeks post emergence. Plants were watered every 2-3 days as needed.
Formulations of the various active ingredients were created using the disclosed pogostone derivatives and Triton-X 100 to aid in the solvation of the active ingredient. Formulations consisted of 0.5% active ingredient by weight. […] 40 mL of formulation (either […] active ingredient) was applied to each pot containing approximately 3-5 plants per pot at 2-3 weeks after emergence. Observations were performed 3 days and 2 weeks after soil drench to determine the effects of the treatments on the various types and stages of plants. Phytotoxicity is reported as percentage of total plants treated compared to a control treatment that was exposed to a similar formulation (without the active monoterpenoid derivatives). Technical grade 2,4-dichlorophenoxyacetic acid (2,4-D) was used as the commercial comparison for phytotoxicity. For its solvation, potassium hydroxide was introduced at a 1:1 molar ratio with 2,4-D to ensure this molecule would adequately dissolve in water.

Entries after “also recorded” stand apart in the source; their conditions may differ.

For orientation: mortality means the share of the test organisms that died. Regarding `CC(C)CCC(=O)c1c(O)c2ccccc2oc1=O` [Formula 13], the “insecticidal capacity compared with natural pyrethrins” value in data set [1] is recorded as “outperformed natural pyrethrins”. In addition, in data set [2], the “toxicity compared with thymol” value is “more toxic than a commonly used natural insecticide, thymol”. In addition, the mortality at 500 µg/mL in data set [3] (Aedes aegypti, 24 h, read-out: 24-hr percentage mortality) was 11.2%. For the same compound, the “percentage mortality at 24 hour” value in [3] (chlorfenapyr 75 ug/mL, Formula 13 500 ug/mL, alone or combined, words) was “very low mortality”. For the same compound, the “efficacy (mortality) compared with thymol” value in the data set with house flies [4] was “outperformed thymol at all time points; also recorded: surpassed the efficacy of thymol at both an equal or higher concentration”; with German roaches it was “outperformed thymol at all time points; also recorded: surpassed the efficacy of thymol at both an equal or higher concentration”; in the data set with maize weevils, “outperformed thymol at all time points; also recorded: performed better than thymol applied at an equal concentration and as well as thymol applied in a 10% concentration”. Moreover, the “mortality compared with thymol or control” value with two-spotted spider mites was “performed better than thymol”; in the data set with soybean aphids it was “performed better than thymol; also recorded: significantly more effective at killing soybean aphids compared to thymol or a control”. Besides, in the data set on adult house flies (LD50 alone versus in combination with PBO), the “SR (synergistic ratio)” value turned out to be 17.8. For the same compound, the “LD50” value in the data set with adult house flies (topical, derivative alone or in combination with PBO) worked out at 5950 µg/g; in the data set with adult female mosquitoes (24 h, read-out: 24-hour Mortality LD50 (μg/g mosquito)), 119 mg/kg; in the data set on adult, female mosquitoes (topical, 24 h, read-out: LD50 (ug/g mosquito)), 119 mg/kg. Further, the “LD50 (ug/g fly)” value in the data set on house flies [5] is 5950 ug/g fly. Besides, in the data set with adult female mosquitoes (mosquito, 1 hour), the “1-hour Knockdown EC50 (μg/g mosquito)” value is recorded as 182 μg/g mosquito. In the data set with adult, female mosquitoes (topical, 1 h, read-out: KD50 (ug/g mosquito)), the ED50 turned out to be 182 mg/kg. For the same compound, in the data set with adult, female mosquitoes (words, refers to Table 1), the “insecticidal properties compared with natural pogostone, natural pyrethrins or terpenoids” value is “possessed better insecticidal properties than natural pogostone”. Further, the phytotoxicity in foxtail entry in data set [6] (40 mL of 0.5% soil drench, FIG. 12, words) is “significant phytotoxicity”. The “% mortality” value in data set [6] (2 weeks after soil drench - 40 mL of 0.5% solution) is listed as 100%; in [6] (3 days after soil drench - 40 mL of 0.5% solution), 50%.
